Test systems include HOP-92; LOX IMVI; DU-145; PC-3; COLO 205; M14; MCF7; OVCAR-5; NCI-H226; NCI-H23; A549; Malme-3M; MDA-MB-231; HT-29; SF-268; BT-549; HCT-116; CAKI-1; KM12; SF-539.
Assay in all cases: inhibition of tumour cell growth, NCI panel, 48 h

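Method: 48-hour compound exposure of cells in 96-well plates, five concentrations, linear interpolation of endpoints. GI50: concentration for 50% inhibition of growth.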 Active and inactive are the calls of the source. No stated cut-off is given here; in the data, active = GI50 up to about 1.1 µM and inactive = higher.

As to `CCCn1cnc2c(SCC(=O)O)nc(N)nc21`, the GI50 in the experiment on HOP-92, with LOX IMVI, with DU-145, in the experiment with PC-3, in the experiment on COLO 205 and with M14 was > 100 µM (inactive) throughout. Also, the GI50 in the experiment on MCF7, in the experiment with OVCAR-5, in the experiment on NCI-H226, in the experiment with NCI-H23, in the experiment with A549 and in the experiment with Malme-3M was > 100 µM (inactive) in each case. The GI50 in the experiment with MDA-MB-231, with HT-29, in the experiment with SF-268, in the experiment with BT-549, in the experiment with HCT-116 and in the experiment on CAKI-1 was > 100 µM (inactive) each time. Moreover, in the experiment with KM12, the GI50 is > 100 µM (inactive).

Take `N#CC12C(=O)N3C(=NC(c4ccccc4)NC3c3ccccc3)C1(C#N)C(c1ccccc1)NC1=C2CCC1` (stereo unspecified): the GI50 in the experiment on HOP-92, in the experiment on LOX IMVI, in the experiment on DU-145, with PC-3, in the experiment with COLO 205 and in the experiment on M14 was > 100 µM (inactive) in each case. The GI50 in the experiment with MCF7, in the experiment with OVCAR-5, with NCI-H226, in the experiment with NCI-H23, in the experiment on A549 and in the experiment with Malme-3M was > 100 µM (inactive) each time. Also, the GI50 in the experiment with MDA-MB-231, with HT-29, in the experiment on SF-268, in the experiment on BT-549, with HCT-116 and in the experiment with CAKI-1 was > 100 µM (inactive) each time. Also, the GI50 in the experiment on KM12 was > 100 µM (inactive).

Regarding `O=C(NCc1ccccc1Cl)c1c(O)c2ccccc2[nH]c1=O`, the GI50 in the experiment with HOP-92 was 27.9 µM (inactive); in the experiment with LOX IMVI, > 100 µM (inactive); in the experiment with SF-539 it was > 100 µM (inactive); in the experiment with DU-145, > 100 µM (inactive); with PC-3 it was 64.9 µM (inactive); in the experiment with COLO 205, 39.8 µM (inactive). Also, the GI50 in the experiment with MCF7 is > 100 µM (inactive); in the experiment with OVCAR-5, > 100 µM (inactive); in the experiment on NCI-H226, 44.7 µM (inactive); with NCI-H23 it was > 100 µM (inactive); in the experiment with A549, 77.8 µM (inactive); with Malme-3M it was > 100 µM (inactive). The GI50 with MDA-MB-231 is 18.6 µM (inactive); in the experiment on HT-29 it was 54.5 µM (inactive); with SF-268 it was 72.1 µM (inactive); in the experiment with BT-549, 34.9 µM (inactive); in the experiment with HCT-116, 27.2 µM (inactive); in the experiment with CAKI-1, 22.7 µM (inactive). Besides, the GI50 in the experiment with KM12 was > 100 µM (inactive).

`CCOC(=O)C1C2CCC1CC(=NNc1ccc([N+](=O)[O-])cc1[N+](=O)[O-])C2` (stereo unspecified): the GI50 is 15.8 µM (inactive) with HOP-92; > 50 µM (inactive) with LOX IMVI; > 50 µM (inactive) in the experiment with SF-539; > 50 µM (inactive) with DU-145; 39.6 µM (inactive) with PC-3; > 50 µM (inactive) in the experiment with COLO 205. The GI50 was > 50 µM (inactive) in the experiment with M14; > 50 µM (inactive) with MCF7; > 50 µM (inactive) with OVCAR-5; 37.4 µM (inactive) in the experiment with NCI-H226; > 50 µM (inactive) in the experiment with NCI-H23; 37.6 µM (inactive) in the experiment with A549. Moreover, the GI50 with Malme-3M was > 50 µM (inactive); in the experiment with MDA-MB-231 it was > 50 µM (inactive); in the experiment on HT-29 it was 47.2 µM (inactive); in the experiment with SF-268 it was > 50 µM (inactive); in the experiment on BT-549 it was > 50 µM (inactive); with HCT-116, > 50 µM (inactive). The GI50 in the experiment on CAKI-1 was 14.8 µM (inactive); in the experiment on KM12 it was 48.9 µM (inactive).

Take `c1csc(-c2cc(-c3cccs3)c(-c3cccs3)s2)c1`: the GI50 is 91.8 µM (inactive) in the experiment with HOP-92; > 100 µM (inactive) in the experiment on SF-539; > 100 µM (inactive) with DU-145; > 100 µM (inactive) with PC-3; 40.6 µM (inactive) in the experiment on COLO 205; 47 µM (inactive) in the experiment on M14. Further, the GI50 in the experiment with MCF7 was 18.5 µM (inactive); in the experiment with OVCAR-5, > 100 µM (inactive); with NCI-H226 it was > 100 µM (inactive); with NCI-H23, 96.4 µM (inactive); in the experiment on A549, > 100 µM (inactive); with Malme-3M, 62.2 µM (inactive). The GI50 is 56.1 µM (inactive) with MDA-MB-231; 39.3 µM (inactive) in the experiment with HT-29; > 100 µM (inactive) in the experiment on SF-268; > 100 µM (inactive) in the experiment on BT-549; 40.9 µM (inactive) in the experiment on HCT-116; > 100 µM (inactive) in the experiment with CAKI-1. Moreover, the GI50 with KM12 is 46.5 µM (inactive).

With `O=C1NC(N2CCCC(CO)C2)=N/C1=C\c1ccc(O)cc1` (stereo unspecified), the GI50 in the experiment with HOP-92, in the experiment on LOX IMVI, in the experiment on SF-539, in the experiment on DU-145, with PC-3 and with COLO 205 was > 100 µM (inactive) each time. In addition, the GI50 in the experiment with M14, in the experiment on MCF7, in the experiment with OVCAR-5, in the experiment on NCI-H226, with NCI-H23 and in the experiment with A549 was > 100 µM (inactive) in each case. In addition, the GI50 with Malme-3M, with MDA-MB-231, in the experiment on HT-29, in the experiment on SF-268, in the experiment on BT-549 and in the experiment on HCT-116 was > 100 µM (inactive) in each case. For the same molecule, the GI50 with CAKI-1 and with KM12 was > 100 µM (inactive) each time.

As for `COc1ccc(OC)c(NS(=O)(=O)c2ccc3nc(C)n(NS(=O)(=O)c4cc(OC)ccc4OC)c(=O)c3c2)c1`, the GI50 with HOP-92 was > 100 µM (inactive); in the experiment with LOX IMVI, 77.6 µM (inactive); in the experiment with SF-539, > 100 µM (inactive); in the experiment on DU-145 it was > 100 µM (inactive); with PC-3 it was 78.9 µM (inactive); in the experiment with COLO 205, > 100 µM (inactive). Moreover, the GI50 with M14 is > 100 µM (inactive); in the experiment with MCF7 it was 87.1 µM (inactive); with OVCAR-5, > 100 µM (inactive); in the experiment with NCI-H226 it was > 100 µM (inactive); in the experiment on NCI-H23 it was 69.5 µM (inactive); with Malme-3M, > 100 µM (inactive). Besides, the GI50 with MDA-MB-231 was > 100 µM (inactive); in the experiment on HT-29, 74.8 µM (inactive); in the experiment with SF-268, > 100 µM (inactive); in the experiment with BT-549, 70.1 µM (inactive); in the experiment with HCT-116, 21.7 µM (inactive); with CAKI-1, > 100 µM (inactive). The GI50 in the experiment on KM12 is 62.5 µM (inactive).

For `CC(=O)C(=[N+]=[N-])C(=O)OCCOC(=O)C(=[N+]=[N-])C(C)=O`, the GI50 in the experiment with HOP-92, in the experiment with LOX IMVI, with SF-539, in the experiment on DU-145, with PC-3 and with M14 was > 1 µM (active) each time. Further, the GI50 in the experiment with MCF7, in the experiment with OVCAR-5, in the experiment on NCI-H226, in the experiment with NCI-H23, in the experiment with A549 and in the experiment on Malme-3M was > 1 µM (active) each time. The GI50 in the experiment on MDA-MB-231, with HT-29, in the experiment with SF-268, with BT-549, in the experiment on HCT-116 and with KM12 was > 1 µM (active) throughout.

Consider `COc1ccc(CCN2C(=O)C(=O)C(C(=O)c3ccccc3)C2c2ccccc2)cc1OC` (stereo unspecified), for which the GI50 in the experiment on HOP-92 is 41.7 µM (inactive); in the experiment on LOX IMVI, 86.7 µM (inactive); in the experiment on SF-539, > 100 µM (inactive); in the experiment on DU-145, > 100 µM (inactive); in the experiment with PC-3 it was > 100 µM (inactive); in the experiment on COLO 205, > 100 µM (inactive). Further, the GI50 with M14, in the experiment with MCF7, in the experiment with OVCAR-5, in the experiment on NCI-H23, with A549 and in the experiment on Malme-3M was > 100 µM (inactive) in each case. Also, the GI50 with MDA-MB-231 is > 100 µM (inactive); with HT-29 it was > 100 µM (inactive); in the experiment on SF-268, > 100 µM (inactive); in the experiment with BT-549 it was 51.6 µM (inactive); in the experiment on HCT-116, > 100 µM (inactive); with CAKI-1, > 100 µM (inactive). The GI50 in the experiment with KM12 was > 100 µM (inactive).

Regarding `COc1ccc2c(c1)N=C(N)n1c(nc3ccccc31)S2`, the GI50 in the experiment on HOP-92 was 11.7 µM (inactive); in the experiment on LOX IMVI, 15.9 µM (inactive); in the experiment with SF-539, 34.6 µM (inactive); in the experiment on DU-145 it was 74.8 µM (inactive); in the experiment with PC-3 it was 7.24 µM (inactive); with COLO 205, 5.27 µM (inactive). The GI50 with M14 is 4.01 µM (inactive); in the experiment on MCF7, 10.9 µM (inactive); in the experiment on OVCAR-5, 6.34 µM (inactive); in the experiment with NCI-H226, 45.8 µM (inactive); in the experiment with NCI-H23, 10.4 µM (inactive); in the experiment with A549, 30 µM (inactive). Moreover, the GI50 in the experiment with Malme-3M is 68.9 µM (inactive); in the experiment with MDA-MB-231, 12.7 µM (inactive); in the experiment on HT-29, 3.96 µM (inactive); in the experiment with SF-268 it was 19.5 µM (inactive); in the experiment on BT-549, 27.1 µM (inactive); in the experiment on HCT-116 it was 3.65 µM (inactive). In addition, the GI50 with KM12 is 15.5 µM (inactive).

Source of the values: ChEMBL document CHEMBL1201862, “PubChem BioAssay data set” (2004).
